From the supplement of paper PMC13380429

How the values were obtained:
[1] = tested on: A549-ACE2 infected with SARS-CoV-2; experiment: morphology score (similarity to uninfected cells); higher = more like uninfected cells; details: 24 h
Vero E6 [2] = experiment: drug sensitivity score (DSS) for viability; higher = more toxic; extreme values may be limits of the assay; details: 72 h
Calu-3 [3] = experiment: as above; details: 72 h
Caco-2 [4] = experiment: as above; details: 72 h
HepG2 [5] = experiment: as above; details: 72 h
U2OS [6] = experiment: as above; details: 72 h
Vero E6 [7] = experiment: cell viability relative to DMSO; higher = less toxic; details: 72 h
Calu-3 [8] = experiment: as above; details: 72 h
Caco-2 [9] = experiment: as above; details: 72 h
HepG2 [10] = experiment: as above; details: 72 h
U2OS [11] = experiment: as above; details: 72 h
[12] = tested on: A549-ACE2 infected with SARS-CoV-2; experiment: cell count relative to DMSO; higher = less toxic; details: 24 h
Vero E6 [13] = experiment: relative viability EC50 (midpoint between 100% and the lowest measured viability); higher = less toxic; details: 72 h
Calu-3 [14] = experiment: as above; details: 72 h
Caco-2 [15] = experiment: as above; details: 72 h
HepG2 [16] = experiment: as above; details: 72 h
U2OS [17] = experiment: as above; details: 72 h
[18] = tested on: A549-ACE2 infected with SARS-CoV-2; experiment: SARS-CoV-2 infection rate relative to DMSO; higher = more infection; details: 24 h
A549-ACE2 [19] = experiment: drug-induced phospholipidosis relative to tamoxifen; higher = more phospholipidosis
A549-ACE2 [20] = experiment: phospholipidosis EC50; higher = less potent phospholipidosis inducer

N#Cc1ccc(N2N=C3c4ccc(C(=O)O)cc4CC[C@@H]3[C@@H]2C2CCCC2)cc1Cl
Details	SARS-CoV-2 infection rate, [18] [%]	cell count, [12] [%]	cell viability, Caco-2 [9] [%]	cell viability, Calu-3 [8] [%]	cell viability, HepG2 [10] [%]	cell viability, U2OS [11] [%]	cell viability, Vero E6 [7] [%]	morphology score, [1]
1 nM	–	–	92	101	93.1	97.1	96	–
10 nM	–	–	98.1	97.6	96.3	96.4	106	–
100 nM	–	–	105	95	114	99.4	90	–
0.3 µM	101	100	–	–	–	–	–	-0.02
1000 nM	–	–	95.1	92.5	95.5	97.7	98.5	–
3 µM	99	107	–	–	–	–	–	0.24
10 µM	98	96	–	–	–	–	–	-0.01
10000 nM	–	–	101	106	103	99.6	117	–
30 µM	75	97	–	–	–	–	–	0.57

Details	drug sensitivity score	relative viability EC50 [µM]
Caco-2 [4]	0	–
Caco-2 [15]	–	> 10
Calu-3 [3]	0	–
Calu-3 [14]	–	> 10
HepG2 [5]	0	–
HepG2 [16]	–	> 10
U2OS [6]	0	–
U2OS [17]	–	> 10
Vero E6 [2]	0	–
Vero E6 [13]	–	> 10

Nc1ccc(C(=O)Nc2cccc(-c3nc(N4CCOCC4)c4oc5ncccc5c4n3)c2)cn1
Details	SARS-CoV-2 infection rate [%]	cell count [%]	cell viability [%]	morphology score	phospholipidosis EC50 [µM]
A549-ACE2 [20], 24 h	–	–	–	–	6.01
A549-ACE2 [20], 48 h	–	–	–	–	7.56
A549-ACE2 [20], 72 h	–	–	–	–	4.36
Caco-2 [9], 1 nM	–	–	95.4	–	–
Caco-2 [9], 10 nM	–	–	97	–	–
Caco-2 [9], 100 nM	–	–	101	–	–
Caco-2 [9], 1000 nM	–	–	87.1	–	–
Caco-2 [9], 10000 nM	–	–	80	–	–
Calu-3 [8], 1 nM	–	–	101	–	–
Calu-3 [8], 10 nM	–	–	96.1	–	–
Calu-3 [8], 100 nM	–	–	100	–	–
Calu-3 [8], 1000 nM	–	–	96.5	–	–
Calu-3 [8], 10000 nM	–	–	94.8	–	–
HepG2 [10], 1 nM	–	–	109	–	–
HepG2 [10], 10 nM	–	–	99.6	–	–
HepG2 [10], 100 nM	–	–	88.3	–	–
HepG2 [10], 1000 nM	–	–	50.5	–	–
HepG2 [10], 10000 nM	–	–	61.6	–	–
Vero E6 [7], 1 nM	–	–	99.9	–	–
Vero E6 [7], 10 nM	–	–	100	–	–
Vero E6 [7], 100 nM	–	–	96.4	–	–
Vero E6 [7], 1000 nM	–	–	95.9	–	–
Vero E6 [7], 10000 nM	–	–	91.9	–	–
[1], 0.3 µM	–	–	–	0.31	–
[1], 3 µM	–	–	–	0.45	–
[1], 10 µM	–	–	–	0.08	–
[1], 30 µM	–	–	–	-0.12	–
[12], 0.3 µM	–	100	–	–	–
[12], 3 µM	–	102	–	–	–
[12], 10 µM	–	101	–	–	–
[12], 30 µM	–	78	–	–	–
[18], 0.3 µM	90	–	–	–	–
[18], 3 µM	47	–	–	–	–
[18], 10 µM	63	–	–	–	–
[18], 30 µM	110	–	–	–	–

Details	drug sensitivity score	relative viability EC50 [µM]
Caco-2 [4]	1.8	–
Caco-2 [15]	–	> 10
Calu-3 [3]	0	–
Calu-3 [14]	–	> 10
HepG2 [5]	10.9	–
Vero E6 [2]	0	–
Vero E6 [13]	–	> 10

drug-induced phospholipidosis [%], A549-ACE2 [19]
Details	0.3 µM	0.833333 µM	3.33333 µM	6.66667 µM	10 µM	30 µM
24 h	4.2	16.4	72	146	132	202
48 h	8.45	22.8	79.6	121	135	188
72 h	8	24.5	107	162	–	231

O=c1oc(-c2ccc(C(F)(F)F)cc2)nn1Cc1cc(Cl)ccc1O
Details	SARS-CoV-2 infection rate [%]	cell count [%]	cell viability [%]	morphology score
Caco-2 [9], 1 nM	–	–	109	–
Caco-2 [9], 10 nM	–	–	94.7	–
Caco-2 [9], 100 nM	–	–	101	–
Caco-2 [9], 1000 nM	–	–	99.2	–
Caco-2 [9], 10000 nM	–	–	92.6	–
HepG2 [10], 1 nM	–	–	105	–
HepG2 [10], 10 nM	–	–	107	–
HepG2 [10], 100 nM	–	–	99.7	–
HepG2 [10], 1000 nM	–	–	99.2	–
HepG2 [10], 10000 nM	–	–	97.3	–
[1], 0.3 µM	–	–	–	0.38
[1], 3 µM	–	–	–	-0.01
[1], 10 µM	–	–	–	0.05
[1], 30 µM	–	–	–	0.43
[12], 0.3 µM	–	101	–	–
[12], 3 µM	–	102	–	–
[12], 10 µM	–	80	–	–
[12], 30 µM	–	65	–	–
[18], 0.3 µM	84	–	–	–
[18], 3 µM	102	–	–	–
[18], 10 µM	99	–	–	–
[18], 30 µM	68	–	–	–

Details	drug sensitivity score	relative viability EC50 [µM]
Caco-2 [4]	0	–
Caco-2 [15]	–	> 10
HepG2 [5]	0	–
HepG2 [16]	–	> 10

drug-induced phospholipidosis [%], A549-ACE2 [19]
Details	0.3 µM	0.833333 µM	3.33333 µM	6.66667 µM	10 µM	30 µM
24 h	-1	-1.2	-2.36	-1.21	0.96	6.42
48 h	3.5	-0.73	0.6	1.96	2.52	8.32
72 h	4.07	0.196	1.24	1.18	2.49	10.1

O=[N+]([O-])/C=C/c1ccc2c(c1)OCO2 [3,4-methylenedioxy-beta-nitrostyrene]
Details	SARS-CoV-2 infection rate, [18] [%]	cell count, [12] [%]	cell viability, Caco-2 [9] [%]	cell viability, Calu-3 [8] [%]	cell viability, HepG2 [10] [%]	cell viability, U2OS [11] [%]	cell viability, Vero E6 [7] [%]	morphology score, [1]
1 nM	–	–	94.9	101	115	99.2	103	–
10 nM	–	–	107	105	97.9	97.5	101	–
100 nM	–	–	93.8	101	101	97.1	99.9	–
0.3 µM	95	106	–	–	–	–	–	0.14
1000 nM	–	–	104	100	95.9	100	96.9	–
3 µM	107	97	–	–	–	–	–	0.21
10 µM	39	49	–	–	–	–	–	0.48
10000 nM	–	–	72.3	95.5	91.3	43.7	84.3	–
30 µM	36	16	–	–	–	–	–	0.16

Details	drug sensitivity score	relative viability EC50 [µM]
Caco-2 [4]	0.9	–
Calu-3 [3]	0	–
Calu-3 [14]	–	> 10
HepG2 [5]	0	–
HepG2 [16]	–	> 10
U2OS [6]	3	–
U2OS [17]	–	3.2
Vero E6 [2]	0.6	–
Vero E6 [13]	–	> 10

drug-induced phospholipidosis [%], A549-ACE2 [19]
Details	0.3 µM	0.833333 µM	3.33333 µM	6.66667 µM	30 µM
24 h	1.47	-0.82	0.27	3.08	-3.87
48 h	-0.23	-2.22	-2.44	-0.19	–
72 h	-0.171	-1.69	-1.41	-0.796	–

Cc1csc(-c2nnc(Nc3ccc(Oc4ncccc4-c4ccnc(N)n4)cc3)c3ccccc23)c1 [AMG900]
Details	SARS-CoV-2 infection rate, [18] [%]	cell count, [12] [%]	cell viability, Caco-2 [9] [%]	cell viability, Calu-3 [8] [%]	cell viability, HepG2 [10] [%]	cell viability, U2OS [11] [%]	cell viability, Vero E6 [7] [%]	morphology score, [1]
1 nM	–	–	94.6	104	101	93.9	100	–
10 nM	–	–	90.5	90.7	73.4	93.8	82.2	–
0.1 µM	97	77	–	–	–	–	–	0.14
100 nM	–	–	96.1	92	76.6	85.5	80.4	–
0.3 µM	93	73	–	–	–	–	–	0.2
1 µM	105	74	–	–	–	–	–	-0.05
1000 nM	–	–	77.3	77.8	53.6	82.3	81.7	–
3 µM	104	75	–	–	–	–	–	-0.08
10000 nM	–	–	65.5	81.4	2.2	68.2	75.8	–

Details	drug sensitivity score	relative viability EC50 [µM]
Caco-2 [4]	4.2	–
Calu-3 [3]	3.3	–
Calu-3 [14]	–	> 10
HepG2 [5]	13.9	–
HepG2 [16]	–	0.54
U2OS [6]	4.3	–
Vero E6 [2]	8.5	–
Vero E6 [13]	–	> 10

drug-induced phospholipidosis [%], A549-ACE2 [19]
Details	0.3 µM	0.833333 µM	3.33333 µM	6.66667 µM	10 µM	30 µM
24 h	13.3	10.1	22.8	35.6	44.4	33.3
48 h	–	–	27.1	–	34.6	7.09
